We go through 25 molecules from patent publication US20240199623A1 (ILDONG PHARMACEUTICAL CO., LTD., priority 2020, published 2024).

For this assay, the target named is human wild type-CFTR (Homo sapiens, UniProt P13569). Briefly: Cell-based YFP assay. On the set-up: expressed in transfected cells; host or cells: CHO-K1 (Chinese hamster ovary). Conditions: CHO-K1 cells expressing human wild type-CFTR and YFP-H148Q/I152L; forskolin 20 μM = 100% activity; read-out: Cell-based YFP Assay (EC50) Concentration Range. Summed up:
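I⁻-driven YFP fluorescence quenching at 37 °C: 2 s baseline, addition of 140 mM iodide solution, then 14 s of readings at 0.4 s intervals. Cells were CHO-K1 expressing human wild-type CFTR plus YFP-H148Q/I152L. EC50 derived from averaged triplicates.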

pEC50: −log10 of the molar value.

Chain of human wild type-CFTR (P13569 whole entry): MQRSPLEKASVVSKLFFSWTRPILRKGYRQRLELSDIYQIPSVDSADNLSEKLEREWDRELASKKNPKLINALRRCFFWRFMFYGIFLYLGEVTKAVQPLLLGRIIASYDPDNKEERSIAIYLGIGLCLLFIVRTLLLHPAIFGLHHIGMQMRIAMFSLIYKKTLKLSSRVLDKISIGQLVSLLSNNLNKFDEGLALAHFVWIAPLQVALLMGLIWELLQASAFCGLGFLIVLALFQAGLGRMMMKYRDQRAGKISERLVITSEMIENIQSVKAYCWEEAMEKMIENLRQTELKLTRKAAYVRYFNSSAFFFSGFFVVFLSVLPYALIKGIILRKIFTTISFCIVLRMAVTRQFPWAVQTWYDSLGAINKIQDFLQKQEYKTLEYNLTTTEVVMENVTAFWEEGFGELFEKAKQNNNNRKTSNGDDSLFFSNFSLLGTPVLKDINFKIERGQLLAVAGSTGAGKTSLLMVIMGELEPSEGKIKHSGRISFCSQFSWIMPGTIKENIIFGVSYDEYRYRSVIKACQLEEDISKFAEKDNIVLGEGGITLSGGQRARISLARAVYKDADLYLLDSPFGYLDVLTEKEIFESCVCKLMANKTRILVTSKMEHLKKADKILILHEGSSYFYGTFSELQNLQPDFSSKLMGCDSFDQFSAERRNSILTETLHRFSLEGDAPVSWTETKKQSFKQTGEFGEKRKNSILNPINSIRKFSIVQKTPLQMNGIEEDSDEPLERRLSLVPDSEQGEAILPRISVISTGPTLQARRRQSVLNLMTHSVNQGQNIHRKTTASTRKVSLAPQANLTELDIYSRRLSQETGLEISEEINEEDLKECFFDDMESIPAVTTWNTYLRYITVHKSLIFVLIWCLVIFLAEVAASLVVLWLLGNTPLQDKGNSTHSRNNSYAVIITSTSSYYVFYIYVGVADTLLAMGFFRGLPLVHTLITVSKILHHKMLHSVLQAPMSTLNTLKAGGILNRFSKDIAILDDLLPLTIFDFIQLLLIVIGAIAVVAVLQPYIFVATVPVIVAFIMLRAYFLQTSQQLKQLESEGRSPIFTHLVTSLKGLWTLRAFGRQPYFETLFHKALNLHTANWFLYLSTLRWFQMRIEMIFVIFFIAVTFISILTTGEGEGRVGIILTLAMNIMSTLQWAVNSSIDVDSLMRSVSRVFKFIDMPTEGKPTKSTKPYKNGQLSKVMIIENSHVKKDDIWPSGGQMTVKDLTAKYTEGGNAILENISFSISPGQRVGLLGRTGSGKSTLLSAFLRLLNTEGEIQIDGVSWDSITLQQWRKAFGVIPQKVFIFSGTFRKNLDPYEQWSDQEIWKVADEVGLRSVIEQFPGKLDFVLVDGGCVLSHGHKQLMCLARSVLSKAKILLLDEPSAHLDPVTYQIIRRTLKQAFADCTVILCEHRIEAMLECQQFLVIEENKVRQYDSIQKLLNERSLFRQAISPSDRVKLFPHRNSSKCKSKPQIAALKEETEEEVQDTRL

For `COc1ccc(-c2ccnc3cc(C(=O)Nc4ccc(C(=O)OCCCN5CCOCC5)c(Cl)c4)nn23)cc1OC` [Compound 162, 3-morpholinopropyl 2-chloro-4-(7-(3,4-dimethoxyphenyl)pyrazolo [1,5-a]pyrimidine-2-carboxamido)benzoate], the pEC50 is at most 5.70. For `COc1ccc(-c2ccnc3cc(C(=O)NC4CCN(C(=O)COC(C)=O)CC4)nn23)cc1OC` [Compound 84, 2-(4-(7-(3,4-dimethoxyphenyl)pyrazolo[1,5-a]pyrimidine-2-carboxamido)piperidin-1-yl)-2-oxoethyl acetate], the pEC50 was at most 5.70. The same measure for `COc1ccc(-c2ccnc3cc(C(=O)N[C@H]4CC[C@@H](C(=O)N5CCNCC5)CC4)nn23)cc1OC` [Compound 81, 7-(3,4-dimethoxyphenyl)-N-((1S,4S)-4-(piperazine-1-carbonyl)cyclohexyl) pyrazolo[1,5-a]pyrimidine-2-carboxamide]: at most 5.70.

As for `COc1ccc(-c2ccnc3cc(C(=O)NN4CCN(C)CC4)nn23)cc1OC` [Compound 68, 7-(3,4-dimethoxyphenyl)-N-(4-methylpiperazin-1-yl) pyrazolo[1,5-a]pyrimidine-2-carboxamide], the pEC50 is at most 5.70. The same measure for `COc1ccc(C(=O)N2CCN(C(=O)c3cc4nccc(-c5ccc(OC)c(OC)c5)n4n3)C[C@@H]2C)cc1` [Compound 319, (S)-(7-(3,4-dimethoxyphenyl)pyrazolo[1,5-a]pyrimidin-2-yl)(4-(4-methoxybenzoyl)-3-methylpiperazin-1-yl) methanone]: 5.70 to 6.70. The value for `COc1ccc(-c2ccnc3cc(C(=O)N(C)c4ccc(C(=O)N5CCN(C)CC5)cc4)nn23)cc1OC` [Compound 248, 7-(3,4-dimethoxyphenyl)-N-methyl-N-(4-(4-methylpiperazine-1-carbonyl)phenyl)pyrazolo [1,5-a]pyrimidine-2-carboxamide] was at most 5.70; that for `COc1ccc(-c2ccnc3cc(C(=O)N(C)c4ccc(C(=O)N5CCOCC5)cc4)nn23)cc1OC` [Compound 249, 7-(3,4-dimethoxyphenyl)-N-methyl-N-(4-(morpholine-4-carbonyl)phenyl)pyrazolo[1,5-a]pyrimidine-2-carboxamide] was at most 5.70; that for `COc1ccc(-c2ccnc3cc(C(=O)N4C[C@H](C)NC[C@H]4C)nn23)cc1OC` [Compound 360, (7-(3,4-dimethoxyphenyl)pyrazolo[1,5-a]pyrimidin-2-yl) ((2R,5S)-2,5-dimethylpiperazin-1-yl)methanone] was 5.70 to 6.70. Turning to `COc1ccc(-c2ccnc3cc(C(=O)Nc4ccc(C(=O)N5CCN(C)CC5)cc4C)nn23)cc1OC` [Compound 128, 7-(3,4-dimethoxyphenyl)-N-(2-methyl-4-(4-methylpiperazine-1-carbonyl)phenyl)pyrazolo [1,5-a]pyrimidine-2-carboxamide], the pEC50 was over 6.70. The value for `COc1ccc(-c2ccnc3cc(C(=O)N4CC(C)NC(C)C4)nn23)cc1OC` (stereo not shown) [Compound 347, (7-(3,4-dimethoxyphenyl)pyrazolo[1,5-a]pyrimidin-2-yl)(3,5-dimethylpiperazin-1-yl)methanone] was at most 5.70; that for `CCOc1ccc(NC(=O)c2cc3ncc(-c4ccc(OC)c(OC)c4)cn3n2)cc1` [Compound 254, 6-(3,4-dimethoxyphenyl)-N-(4-ethoxyphenyl)pyrazolo[1,5-a]pyrimidine-2-carboxamide] was at most 5.70. The same measure for `Cc1cccc(-c2ccnc3cc(C(=O)Nc4ccc(N5CCOCC5)cn4)nn23)c1` [Compound 306, N-(5-morpholinopyridin-2-yl)-7-(m-tolyl)pyrazolo[1,5-a] pyrimidine-2-carboxamide]: at most 5.70; for `COc1ccc(-c2ccnc3cc(C(=O)NCC(=O)O)nn23)cc1OC` [Compound 22, (7-(3,4-dimethoxyphenyl)pyrazolo[1,5-a]pyrimidine-2-carbonyl) glycine]: at most 5.70. In the case of `CCOc1ccc(NC(=O)c2cc3nccc(-c4cc(OC)c(OC)cc4C)n3n2)cc1` [Compound 339, 7-(4,5-dimethoxy-2-methylphenyl)-N-(4-ethoxyphenyl)pyrazolo [1,5-a]pyrimidine-2-carboxamide], the pEC50 is at most 5.70. The value for `COc1ccc(-c2ccnc3cc(C(=O)Nc4ccc(C(=O)N[C@@H](Cc5ccccc5)C(=O)O)cc4)nn23)cc1OC` [Compound 49, (4-(7-(3,4-dimethoxyphenyl)pyrazolo[1,5-a]pyrimidine-2-carboxamido)benzoyl)-L-phenylalanine] was 5.70 to 6.70; that for `CCOc1ccc(NC(=O)c2cc3nccc(-c4ccc(Cl)cc4F)n3n2)cc1` [Compound 304, 7-(4-chloro-2-fluorophenyl)-N-(4-ethoxyphenyl)pyrazolo [1,5-a]pyrimidine-2-carboxamide] was at most 5.70. The value for `COc1ccc(-c2ccnc3cc(C(=O)Nc4ccc(N(C)C)cn4)nn23)cc1OC` [Compound 312, 7-(3,4-dimethoxyphenyl)-N-(5-(dimethylamino)pyridin-2-yl)pyrazolo [1,5-a]pyrimidine-2-carboxamide] was over 6.70; that for `COc1ccc(-c2ccnc3cc(C(=O)N4C[C@H](C)N[C@@H](C)C4)nn23)cc1OC` [Compound 359, (7-(3,4-dimethoxyphenyl)pyrazolo[1,5-a]pyrimidin-2-yl) ((3S,5S)-3,5-dimethylpiperazin-1-yl)methanone] was 5.70 to 6.70.

`CCOc1ccc(NC(=O)c2cc3nccc(-c4cccc(C)c4)n3n2)cc1` [Compound 301, N-(4-ethoxyphenyl)-7-(m-tolyl)pyrazolo[1,5-a] pyrimidine-2-carboxamide]: the pEC50 is at most 5.70. The value for `CCOc1ccc(NC(=O)c2cc3nccc(-c4ccc(F)c(C)c4)n3n2)cc1` [Compound 302, N-(4-ethoxyphenyl)-7-(4-fluoro-3-methylphenyl)pyrazolo [1,5-a]pyrimidine-2-carboxamide] was at most 5.70; that for `COc1ccc(-c2ccnc3cc(C(=O)N4CCN(C(=O)c5ccco5)[C@@H](C)C4)nn23)cc1OC` [Compound 353, (S)-(7-(3,4-dimethoxyphenyl)pyrazolo[1,5-a]pyrimidin-2-yl)(4-(furan-2-carbonyl)-3-methylpiperazin-1-yl)methanone] was over 6.70; that for `COc1ccc(-c2ccnc3cc(C(=O)NC(=Cc4ccccc4)C(=O)O)nn23)cc1OC` [Compound 108, 2-(7-(3,4-dimethoxyphenyl)pyrazolo[1,5-a]pyrimidine-2-carboxamido)-3-phenylacrylic acid] was at most 5.70. The same measure for `COCCOCOC(=O)c1ccc(NC(=O)c2cc3nccc(-c4ccc(OC)c(OC)c4)n3n2)cc1` [Compound 329, (2-methoxyethoxy)methyl 4-(7-(3,4-dimethoxyphenyl)pyrazolo [1,5-a]pyrimidine-2-carboxamido)benzoate]: over 6.70; for `COc1ccc(-c2ccnc3cc(C(=O)Nc4ccc(C(=O)NCCN5CCCC5)cc4)nn23)cc1OC` [Compound 223, 7-(3,4-dimethoxyphenyl)-N-(4-((2-(pyrrolidin-1-yl)ethyl)carbamoyl)phenyl)pyrazolo[1,5-a]pyrimidine-2-carboxamide]: at most 5.70; for `COc1ccc(-c2ccnc3cc(C(=O)N4CCc5cc(C(=O)N6CCN(C)CC6)ccc54)nn23)cc1OC` [Compound 250, (7-(3,4-dimethoxyphenyl)pyrazolo[1,5-a]pyrimidin-2-yl)(5-(4-methylpiperazine-1-carbonyl)indolin-1-yl) methanone]: 5.70 to 6.70.
